The values below come from US12479827B2, “Heteroaromatic carboxamide derivatives as plasma kallikrein inhibitors” (Boehringer Ingelheim International GmbH, priority 2020, dated 2025).

In general, IC50 refers to the midpoint of a concentration-inhibition curve.

Assay [1] has as its target T1, PKK in kaolin activated human platelet poor plasma (Homo sapiens, UniProt P03952).
T1 construct: Platelet poor plasma (PPP) obtained from human wholeblood; from tissue
Briefly: Inhibition of PKK in kaolin activated human PPP.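 Note: readout is the rate of fluorogenic substrate cleavage in rfu per min.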 Type of assay: biochemical. The conditions noted are these: 25-750 μg/mL kaolin, global fit, text b200 calls the values IC90. The protocol: Platelet poor plasma (PPP) obtained from human wholeblood, anticoagulated with Na-Citrate, is incubated with various concentrations of the test compound together with either 25, 75, 250, or 750 μg/mL kaolin in assay buffer for 20 min at 37° C. such that for each kaolin dose used a concentration response is obtained for the test compound.

A further assay addresses T2, Human PKK (Homo sapiens, UniProt P03952).
T2 construct: purchased Enzyme Research Laboratories
Briefly: Inhibition of PKK using an endpoint assay (human PKK). Type of assay: biochemical. The conditions noted are these: fluorogenic substrate H-Pro-Phe-Arg-AMC, 1 h room temperature, method names human or rat PKK, table does not say which. A digest of the protocol:
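Endpoint fluorescence (ex 355 nm, em 460 nm) after stopping with 1 μM final PPACK II. Buffer: Tris 100 mM pH 7.8, NaCl 150 mM, BSA 0.1%, Tween20 0.05%, with 1% DMSO present; enzyme is human plasma kallikrein.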

Molecules are shown by their SMILES.

T1 sequence (P03952 391-638 limits assumed): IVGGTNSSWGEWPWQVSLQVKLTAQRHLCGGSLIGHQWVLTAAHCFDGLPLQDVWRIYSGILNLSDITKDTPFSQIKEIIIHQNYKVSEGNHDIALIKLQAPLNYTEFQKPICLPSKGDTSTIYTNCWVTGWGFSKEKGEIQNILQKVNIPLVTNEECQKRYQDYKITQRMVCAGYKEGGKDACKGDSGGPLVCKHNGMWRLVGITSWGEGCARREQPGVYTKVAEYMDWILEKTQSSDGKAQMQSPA
T1 sequence (P03952 20-390 limits assumed): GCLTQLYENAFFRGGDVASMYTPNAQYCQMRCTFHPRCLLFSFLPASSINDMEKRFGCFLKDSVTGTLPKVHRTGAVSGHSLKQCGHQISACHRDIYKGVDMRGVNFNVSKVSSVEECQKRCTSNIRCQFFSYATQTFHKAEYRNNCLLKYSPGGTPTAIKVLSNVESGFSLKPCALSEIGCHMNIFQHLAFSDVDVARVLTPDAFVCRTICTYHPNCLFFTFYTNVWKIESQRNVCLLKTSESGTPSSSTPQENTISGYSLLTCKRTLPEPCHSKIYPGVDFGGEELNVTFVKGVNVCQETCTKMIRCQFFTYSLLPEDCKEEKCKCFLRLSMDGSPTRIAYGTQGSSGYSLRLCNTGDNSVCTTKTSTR
T2 sequence (P03952 20-390 limits assumed): as above
T2 sequence (P03952 391-638 limits assumed): as the sequence (P03952 391-638 limits assumed) above

Turning to `Cc1c(Cn2cc(C(=O)N[C@@H]3CCc4c3ncn4C)cn2)cnc(N2CC3C(C2)C3(F)F)c1C#N` (stereo partly drawn) [Example 103, 1-[(5-Cyano-6-{6,6-difluoro-3-azabicyclo[3.1.0]-hexan-3-yl}-4-methylpyridin-3-yl)methyl]-N-[(4R)-1-methyl-1H,4H,5H,6H-cyclopenta-[d]imidazol-4-yl]-1H-pyrazole-4-carboxamide], the IC50 came to 531 nM in assay [1] and 0.7 nM at Human PKK.
Regarding `Cn1cnc2c1CC[C@H]2NC(=O)c1cnn(Cc2ccc(N3CC4CC4C3)nc2F)c1` (stereo partly drawn) [Example 104, 1-[(6-{3-Azabicyclo[3.1.0]hexan-3-yl}-2-fluoropyridin-3-yl)methyl]-N-[(4R)-1-methyl-1H,4H,5H,6H-cyclopenta[d]imidazol-4-yl]-1H-pyrazole-4-carboxamide], the concentration for half-maximal inhibition (IC50) in assay [1] was 706 nM; against Human PKK it was 3.2 nM.
For the compound `Cc1c(Cn2cnc(C(=O)N[C@@H]3CCc4c3ncn4C)c2)cnc(N2CC3C(C2)C3(F)F)c1C#N` (stereo partly drawn) [Example 105, 1-[(5-Cyano-6-{6,6-difluoro-3-azabicyclo[3.1.0]-hexan-3-yl}-4-methylpyridin-3-yl)methyl]-N-[(4R)-1-methyl-1H,4H,5H,6H-cyclopenta-[d]imidazol-4-yl]-1H-imidazole-4-carboxamide], the IC50 in assay [1] was determined as 117 nM; at Human PKK, 0.5 nM.
For `Cc1cc(N2CC3CC3C2)ncc1Cn1cnc(C(=O)N[C@@H]2CCc3c2ncn3C)c1` (stereo partly drawn) [Example 106, 1-[(6-{3-Azabicyclo[3.1.0]hexan-3-yl}-4-methylpyridin-3-yl)methyl]-N-[(4R)-1-methyl-1H,4H,5H,6H-cyclopenta[d]imidazol-4-yl]-1H-imidazole-4-carboxamide], the figures for the 50% inhibitory concentration (IC50) (in assay [1]; at Human PKK) were 1970 nM and 9.8 nM, respectively.
For the compound `CCc1nc(N2CC3C(C2)C3(F)F)ccc1Cn1cc(C(=O)N[C@@H]2CCc3c2ncn3C)nn1` (stereo partly drawn) [Example 109, 1-[(6-{6,6-Difluoro-3-azabicyclo[3.1.0]hexan-3-yl}-2-ethylpyridin-3-yl)methyl]-N-[(4R)-1-methyl-1H,4H,5H,6H-cyclopenta[d]imidazol-4-yl]-1H-1,2,3-triazole-4-carboxamide], the half-maximal inhibitory concentration (IC50) is 414 nM in assay [1] and 0.8 nM against Human PKK.
In the case of `Cc1cc(N2CC3C(C2)C3(F)F)nc(C)c1Cn1cnc(C(=O)N[C@@H]2CCc3c2ncn3C)c1` (stereo partly drawn) [Example 111, 1-[(6-{6,6-Difluoro-3-azabicyclo[3.1.0]hexan-3-yl}-2,4-dimethylpyridin-3-yl)methyl]-N-[(4R)-1-methyl-1H,4H,5H,6H-cyclopenta[d]imidazol-4-yl]-1H-imidazole-4-carboxamide], the results for the IC50 (in assay [1]; against Human PKK) were 4150 nM and 8.6 nM, respectively.
As for `Cc1cc(N2CC3C(C2)C3(F)F)nc(C)c1Cn1cc(C(=O)N[C@@H]2CCc3c2ncn3C)cn1` (stereo partly drawn) [Example 112, 1-[(6-{6,6-Difluoro-3-azabicyclo[3.1.0]hexan-3-yl}-2,4-dimethylpyridin-3-yl)methyl]-N-[(4R)-1-methyl-1H,4H,5H,6H-cyclopenta[d]imidazol-4-yl]-1H-pyrazole-4-carboxamide], the figures for the concentration for half-maximal inhibition (IC50) (in assay [1]; against Human PKK) were 2780 nM and 12.6 nM, respectively.
Regarding `Cn1cnc2c1CC[C@H]2NC(=O)c1cnn(Cc2ccc(N3CC4CC4C3)nc2C#N)c1` (stereo partly drawn) [Example 132, 1-[(6-{3-Azabicyclo[3.1.0]hexan-3-yl}-2-cyanopyridin-3-yl)methyl]-N-[(4R)-1-methyl-1H,4H,5H,6H-cyclopenta[d]imidazol-4-yl]-1H-pyrazole-4-carboxamide], the IC50 in assay [1] stood at 425 nM; against Human PKK it was 1.9 nM.
Turning to `Cn1cnc2c1CC[C@H]2NC(=O)c1c[nH]c(Cc2ccc(N3CC4C(C3)C4(F)F)nc2)c1` (stereo partly drawn) [Example 139, 5-[(6-{6,6-Difluoro-3-azabicyclo[3.1.0]hexan-3-yl}pyridin-3-yl)methyl]-N-[(4R)-1-methyl-1H,4H,5H,6H-cyclopenta[d]imidazol-4-yl]-1H-pyrrole-3-carboxamide], the values for the IC50 (in assay [1]; against Human PKK) were 774 nM and 9.6 nM, respectively.
For the compound `Cn1cnc2c1CC[C@H]2NC(=O)c1ccn(Cc2ccc(N3CC4C(C3)C4(F)F)nc2)c1` (stereo partly drawn) [Example 140, 1-[(6-{6,6-Difluoro-3-azabicyclo[3.1.0]hexan-3-yl}pyridin-3-yl)methyl]-N-[(4R)-1-methyl-1H,4H,5H,6H-cyclopenta[d]imidazol-4-yl]-1H-pyrrole-3-carboxamide], the half-inhibitory concentration (IC50) in assay [1] was found to be 760 nM; against Human PKK, 5.8 nM.
In the same order, the values of `Cc1nc(N2CC3C(C2)C3(F)F)ccc1Cn1ccc(C(=O)N[C@@H]2CCc3c2ncn3C)c1` (stereo partly drawn) [Example 141, 1-[(6-{6,6-Difluoro-3-azabicyclo[3.1.0]hexan-3-yl}-2-methylpyridin-3-yl)methyl]-N-[(4R)-1-methyl-1H,4H,5H,6H-cyclopenta[d]imidazol-4-yl]-1H-pyrrole-3-carboxamide] are 621 nM and 2 nM.
For `Cc1nc(N2CC3C(C2)C3(F)F)ccc1Cc1cc(C(=O)N[C@@H]2CCc3c2ncn3C)c[nH]1` (stereo partly drawn) [Example 142, 5-[(6-{6,6-Difluoro-3-azabicyclo[3.1.0]hexan-3-yl}-2-methylpyridin-3-yl)methyl]-N-[(4R)-1-methyl-1H,4H,5H,6H-cyclopenta[d]imidazol-4-yl]-1H-pyrrole-3-carboxamide] the same measures were 731 nM and 5.8 nM.
Consider `CCc1nc(N2C[C@@H]3[C@H](C)[C@@H]3C2)ccc1Cn1cnc(C(=O)N[C@@H]2CCc3c2ncn3C)c1` [Example 143, 1-({2-Ethyl-6-[(1R,5S,6R)-6-methyl-3-azabicyclo[3.1.0]hexan-3-yl]pyridin-3-yl}methyl)-N-[(4R)-1-methyl-1H,4H,5H,6H-cyclopenta-[d]imidazol-4-yl]-1H-imidazole-4-carboxamide], for which the IC50 is 1170 nM in assay [1] and 0.6 nM on Human PKK.
Consider `Cn1cnc2c1CC[C@H]2NC(=O)c1cc(Cc2ccc(N3CC4CC4C3)nc2C(F)F)no1` (stereo partly drawn) [Example 144, 3-[(6-{3-Azabicyclo[3.1.0]hexan-3-yl}-2-(difluoromethyl)pyridin-3-yl)methyl]-N-[(4R)-1-methyl-1H,4H,5H,6H-cyclopenta[d]imidazol-4-yl]-1,2-oxazole-5-carboxamide], for which the concentration for half-maximal inhibition (IC50) was 248 nM in assay [1] and 0.8 nM against Human PKK.
In the case of `Cn1cnc2c1CC[C@H]2NC(=O)c1cc(Cc2ccc(N3CC4C(C3)C4(F)F)nc2C(F)F)no1` (stereo partly drawn) [Example 145, 3-[(6-{6,6-Difluoro-3-azabicyclo[3.1.0]hexan-3-yl}-2-(difluoromethyl)pyridin-3-yl)methyl]-N-[(4R)-1-methyl-1H,4H,5H,6H-cyclopenta-[d]imidazol-4-yl]-1,2-oxazole-5-carboxamide], the half-maximal inhibitory concentration (IC50) was 245 nM in assay [1] and 0.7 nM on Human PKK.
On to `CCc1nc(N2CC3CC3C2)ccc1Cc1cc(C(=O)N[C@@H]2CCc3c2ncn3C)on1` (stereo partly drawn) [Example 146, 3-[(6-{3-Azabicyclo[3.1.0]hexan-3-yl}-2-ethylpyridin-3-yl)methyl]-N-[(4R)-1-methyl-1H,4H,5H,6H-cyclopenta[d]imidazol-4-yl]-1,2-oxazole-5-carboxamide], for which the IC50 turned out to be 274 nM in assay [1] and 1.1 nM at Human PKK.
In the same order, the values of `Cn1cnc2c1CC[C@H]2NC(=O)c1cc(Cc2ccc(N3CC4C(C3)C4(F)F)nc2CO)no1` (stereo partly drawn) [Example 147, 3-[(6-{6,6-Difluoro-3-azabicyclo[3.1.0]hexan-3-yl}-2-(hydroxymethyl)pyridin-3-yl)methyl]-N-[(4R)-1-methyl-1H,4H,5H,6H-cyclopenta-[d]imidazol-4-yl]-1,2-oxazole-5-carboxamide] are 149 nM and 1.4 nM.
On to `Cn1cnc2c1CC[C@H]2NC(=O)c1cc(Cc2ccc(N3CC4CC4C3)nc2Cl)no1` (stereo partly drawn) [Example 148, 3-[(6-{3-Azabicyclo[3.1.0]hexan-3-yl}-2-chloropyridin-3-yl)methyl]-N-[(4R)-1-methyl-1H,4H,5H,6H-cyclopenta[d]imidazol-4-yl]-1,2-oxazole-5-carboxamide], for which the 50% inhibitory concentration (IC50) amounted to 985 nM in assay [1] and 1.4 nM on Human PKK.
`Cn1cnc2c1CC[C@H]2NC(=O)c1cc(Cc2ccc(N3CC4CC4C3)nc2CO)no1` (stereo partly drawn) [Example 149, 3-[(6-{3-Azabicyclo[3.1.0]hexan-3-yl}-2-(hydroxymethyl)pyridin-3-yl)methyl]-N-[(4R)-1-methyl-1H,4H,5H,6H-cyclopenta[d]imidazol-4-yl]-1,2-oxazole-5-carboxamide]: the half-maximal inhibitory concentration (IC50) in assay [1] turned out to be 511 nM; against Human PKK, 1.6 nM.
In the case of `Cn1cnc2c1CC[C@H]2NC(=O)c1cc(Cc2ccc(N3CC4C(C3)C4(F)F)nc2Cl)no1` (stereo partly drawn) [Example 150, 3-[(2-Chloro-6-{6,6-difluoro-3-azabicyclo[3.1.0]hexan-3-yl}pyridin-3-yl)methyl]-N-[(4R)-1-methyl-1H,4H,5H,6H-cyclopenta-[d]imidazol-4-yl]-1,2-oxazole-5-carboxamide], the IC50 is 373 nM in assay [1] and 1 nM against Human PKK.
Turning to `Cn1cnc2c1CC[C@H]2NC(=O)c1cc(Cc2ccc(N3CC4CC4C3)nc2)no1` (stereo partly drawn) [Example 151, 3-[(6-{3-Azabicyclo[3.1.0]hexan-3-yl}pyridin-3-yl)methyl]-N-[(4R)-1-methyl-1H,4H,5H,6H-cyclopenta[d]imidazol-4-yl]-1,2-oxazole-5-carboxamide], the concentration for half-maximal inhibition (IC50) in assay [1] turned out to be 1140 nM; on Human PKK, 3.6 nM.
On to `Cc1nc(N2CC3C(C2)C3(F)F)ccc1Cc1cc(C(=O)N[C@@H]2CCc3c2ncn3C)on1` (stereo partly drawn) [Example 152, 3-[(6-{6,6-Difluoro-3-azabicyclo[3.1.0]hexan-3-yl}-2-methylpyridin-3-yl)methyl]-N-[(4R)-1-methyl-1H,4H,5H,6H-cyclopenta[d]imidazol-4-yl]-1,2-oxazole-5-carboxamide], for which the IC50 in assay [1] is 430 nM; against Human PKK, 1.2 nM.
